Measurements taken from ChEMBL document CHEMBL4825681, “Iron-Catalyzed Skeletal Conversion of Lathyrane to Premyrsinane Euphorbia Diterpenes and Their Cytotoxic Activities” (J Nat Prod, 2021).

tested on: 4T1; experiment: Cytotoxicity against mouse 4T1 cells assessed as reduction in cell viability incubated for 24 hrs by MTT assay; assay type: functional, cell-based; settings: 4T1, 24 h

Compared with `CC(=O)O[C@@H]1[C@H]2[C@@H](OC(=O)c3ccccc3)[C@@H](C)C[C@]2(OC(C)=O)C(=O)[C@@H](C)[C@@H]2[C@@H]3[C@H](CC[C@]21C)C3(C)C`, `CC(=O)O[C@@H]1[C@H]2[C@@H](OC(=O)c3ccccc3)[C@@H](C)C[C@]2(OC(C)=O)C(=O)[C@H](C)[C@@H]2[C@@H]3[C@H](CC[C@]21C)C3(C)C` is 3.3-fold higher in IC50: 2.5 µM for the first, 8.2 µM for the second.

Compared with `C=C1CC[C@H]2[C@@H](/C=C(\C)C(=O)[C@@]3(OC(C)=O)C[C@H](C)[C@H](OC(=O)c4ccccc4)[C@@H]3[C@H]1OC(C)=O)C2(C)C`, `CC(=O)O[C@H]1C(=O)[C@@]2(C)[C@H]([C@H](OC(=O)c3ccccc3)[C@]3(O)C[C@H](OC(=O)[C@H](O)[C@@H](NC(=O)c4ccccc4)c4ccccc4)C(C)=C1C3(C)C)[C@]1(OC(C)=O)CO[C@@H]1C[C@@H]2O` [PACLITAXEL] is lower in IC50: > 10 µM for the first, 0.8 µM for the second.
